# Measurements published in PMC6099768, “Application of Docking Analysis in the Prediction and Biological Evaluation of the Lipoxygenase Inhibitory Action of Thiazolyl Derivatives of Mycophenolic Acid” (Molecules : A Journal of Synthetic Chemistry and Natural …, 2018).
# Where two headings read alike, the source gives them in different places.
# Target: T1, soybean LOX type 1b (sLOX-1) (Glycine max, UniProt P08170)
# T1 sequence (P08170 1-839): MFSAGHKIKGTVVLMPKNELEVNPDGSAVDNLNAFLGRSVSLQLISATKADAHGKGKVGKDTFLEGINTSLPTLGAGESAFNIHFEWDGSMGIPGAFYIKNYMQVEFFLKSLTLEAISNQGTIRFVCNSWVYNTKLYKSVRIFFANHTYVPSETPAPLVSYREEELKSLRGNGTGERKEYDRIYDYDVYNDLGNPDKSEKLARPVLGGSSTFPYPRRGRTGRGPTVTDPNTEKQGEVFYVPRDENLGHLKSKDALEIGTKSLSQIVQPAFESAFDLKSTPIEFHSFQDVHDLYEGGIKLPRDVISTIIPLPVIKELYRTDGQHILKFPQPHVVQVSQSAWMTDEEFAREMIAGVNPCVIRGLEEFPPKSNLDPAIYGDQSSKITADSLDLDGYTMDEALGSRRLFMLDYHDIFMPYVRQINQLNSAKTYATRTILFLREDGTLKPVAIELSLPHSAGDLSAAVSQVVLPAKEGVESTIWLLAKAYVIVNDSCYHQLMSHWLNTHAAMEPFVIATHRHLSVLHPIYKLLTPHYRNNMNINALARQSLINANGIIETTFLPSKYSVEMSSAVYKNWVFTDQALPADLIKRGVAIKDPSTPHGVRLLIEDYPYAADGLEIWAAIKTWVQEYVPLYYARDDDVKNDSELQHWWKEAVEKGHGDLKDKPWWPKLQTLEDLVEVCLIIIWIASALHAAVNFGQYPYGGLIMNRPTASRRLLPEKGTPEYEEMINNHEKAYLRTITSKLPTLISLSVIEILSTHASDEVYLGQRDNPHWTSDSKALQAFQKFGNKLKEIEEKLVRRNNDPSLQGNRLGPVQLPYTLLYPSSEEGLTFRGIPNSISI
# Test: Soybean lipoxygenase inhibition study in vitro
# Type: biochemical
# Description: For the evaluation of lipoxygenase inhibition soybean LOX type 1b was used as reported previously. The selection was based on the structural and functional similarity of sLOX-1 with mammalian LOX [36, 50, 51, 52] which makes it the most commonly used LOX enzyme in drug screening, followed by sLOX-3 [40].
# The assay conditions were as previously reported. Different compound concentrations were used for the calculation of IC50 values. The experiments were performed in triplicate.
# [1] = printed as negative values (−log of IC50 in µM), read-out: pIC50 (converted)
# [2] = soybean LOX type 1b, means of three determinations, deviation <10% of the mean, read-out: IC50
# [3] = Table 6, unit inferred, same values as Table 5, read-out: IC50
IC50 [1] [µM],IC50 [2] [µM],IC50 [3] [µM],SMILES
26.2,26.3,,"COc1c(C)c2c(c(O)c1C/C=C(\C)CCC(=O)Nc1nccs1)C(=O)OC2 [Compound 1, (E)-6-(4-Hydroxy-6-methoxy-7-methyl-3-oxo-1,3-dihydroisobenzofuran-5-yl)-4-methyl-N-(thiazol-2-yl)hex-4-enamide]"
22.5,22.5,22.5,"COc1c(C)c2c(c(O)c1C/C=C(\C)CCC(=O)Nc1ncc(C)s1)C(=O)OC2 [Compound 2, (E)-6-(4-Hydroxy-6-methoxy-7-methyl-3-oxo-1,3-dihydroisobenzofuran-5-yl)-4-methyl-N-(5-methylthiazol-2-yl)hex-4-enamide]"
43.8,43.7,,"COc1c(C)c2c(c(O)c1C/C=C(\C)CCC(=O)Nc1nc(C)c(C)s1)C(=O)OC2 [Compound 3, (E)-N-(4,5-Dimethylthiazol-2-yl)-6-(4-hydroxy-6-methoxy-7-methyl-3-oxo-1,3-dihydroisobenzofuran-5-yl)-4-methylhex-4-enamide]"
31.3,31.2,31.2,"COc1c(C)c2c(c(O)c1C/C=C(\C)CCC(=O)Nc1nc(C)cs1)C(=O)OC2 [Compound 4, (E)-6-(4-Hydroxy-6-methoxy-7-methyl-3-oxo-1,3-dihydroisobenzofuran-5-yl)-4-methyl-N-(4-methylthiazol-2-yl)hex-4-enamide]"
,22.5,22.5,"CCOC(=O)c1sc(NC(=O)CC/C(C)=C/Cc2c(O)c3c(c(C)c2OC)COC3=O)nc1C [Compound 5, (E)-Ethyl-2-(6-(4-hydroxy-6-methoxy-7-methyl-3-oxo-1,3-dihydroisobenzofuran-5-yl)-4-methylhex-4-enamido)-4-methylthiazole-5-carboxylate]"
30,30,,"CCOC(=O)Cc1csc(NC(=O)CC/C(C)=C/Cc2c(O)c3c(c(C)c2OC)COC3=O)n1 [Compound 6, (E)-Ethyl-2-(2-(6-(4-hydroxy-6-methoxy-7-methyl-3-oxo-1,3-dihydroisobenzofuran-5-yl)-4-methylhex-4-enamido)thiazol-4-yl)acetate]"
78.7,78.8,,"COc1c(C)c2c(c(O)c1C/C=C(\C)CCC(=O)Nc1nc(-c3ccncc3)cs1)C(=O)OC2 [Compound 7, (E)-6-(4-Hydroxy-6-methoxy-7-methyl-3-oxo-1,3-dihydroisobenzofuran-5-yl)-4-methyl-N-(4-(pyridin-4-yl)thiazol-2-yl)hex-4-enamide]"
89.9,90,90,COc1c(C)c2c(c(O)c1C/C=C(\C)CCC(=O)Nc1nc(-c3cccnc3)cs1)C(=O)OC2 [Compound 8]
2.5,2.5,2.5,"COc1c(C)c2c(c(O)c1C/C=C(\C)CCC(=O)Nc1nc(-c3ccccn3)cs1)C(=O)OC2 [Compound 9, (E)-6-(4-Hydroxy-6-methoxy-7-methyl-3-oxo-1,3-dihydroisobenzofuran-5-yl)-4-methyl-N-(4-(pyridin-2-yl)thiazol-2-yl)hex-4-enamide]"
89.9,90,,"COc1c(C)c2c(c(O)c1C/C=C(\C)CCC(=O)Nc1nc3ccccc3s1)C(=O)OC2 [Compound 10, (E)-N-(Benzo[d]thiazol-2-yl)-6-(4-hydroxy-6-methoxy-7-methyl-3-oxo-1,3-dihydroisobenzofuran-5-yl)-4-methylhex-4-enamide]"
156,156,156,"COc1ccc2nc(NC(=O)CC/C(C)=C/Cc3c(O)c4c(c(C)c3OC)COC4=O)sc2c1 [Compound 11, (E)-6-(4-Hydroxy-6-methoxy-7-methyl-3-oxo-1,3-dihydroisobenzofuran-5-yl)-N-(6-methoxybenzo[d]thiazol-2-yl)-4-methylhex-4-enamide]"
,61.2,,"COc1c(C)c2c(c(O)c1C/C=C(\C)CCC(=O)Nc1nc3c(s1)CCCC3)C(=O)OC2 [Compound 12, (E)-6-(4-Hydroxy-6-methoxy-7-methyl-3-oxo-1,3-dihydroisobenzofuran-5-yl)-4-methyl-N-(4,5,6,7-tetrahydrobenzo[d]thiazol-2-yl)hex-4-enamide]"
,25,,"COc1c(C)c2c(c(O)c1C/C=C(\C)CCC(=O)Nc1nc3c(s1)CCCCC3)C(=O)OC2 [Compound 13, (E)-6-(4-Hydroxy-6-methoxy-7-methyl-3-oxo-1,3-dihydroisobenzofuran-5-yl)-4-methyl-N-(5,6,7,8-tetrahydro-4H-cyclohepta[d]thiazol-2-yl)hex-4-enamide]"
,31.2,,"COc1c(C)c2c(c(O)c1C/C=C(\C)CCC(=O)Nc1nc3c(s1)CCC3)C(=O)OC2 [Compound 14, (E)-N-(5,6-Dihydro-4H-cyclopenta[d]thiazol-2-yl)-6-(4-hydroxy-6-methoxy-7-methyl-3-oxo-1,3-dihydroisobenzofuran-5-yl)-4-methylhex-4-enamide]"
,96.3,,"COc1c(C)c2c(c(OC)c1C/C=C(\C)CCC(=O)Nc1nccs1)C(=O)OC2 [Compound 15, (E)-6-(4,6-Dimethoxy-7-methyl-3-oxo-1,3-dihydroisobenzofuran-5-yl)-4-methyl-N-(thiazol-2-yl)hex-4-enamide]"
,90,,"COc1c(C)c2c(c(OC)c1C/C=C(\C)CCC(=O)Nc1ncc(C)s1)C(=O)OC2 [Compound 16, (E)-6-(4,6-Dimethoxy-7-methyl-3-oxo-1,3-dihydroisobenzofuran-5-yl)-4-methyl-N-(5-methylthiazol-2-yl)hex-4-enamide]"
